According to ChEMBL document CHEMBL1201862, “PubChem BioAssay data set” (2004):
Activity calls are given as the source filed them.

Tests used:
CAAX prenyl protease 1 = CAAX prenyl protease 1 (Saccharomyces cerevisiae S288c, UniProt P47154); assay: Ste24 protease inhibitors, dose response, biochemical, S. cerevisiae, plate reader, cherry-pick (AID 488815)
[1] = biological target: DNA dC->dU-editing enzyme APOBEC-3G (Homo sapiens, UniProt Q9HC16); type: functional;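 further: Dose-response counterscreen measuring inhibition of APOBEC3G DNA deaminase activity, run while confirming APOBEC3A inhibitors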
[2] = biological target: DNA dC->dU-editing enzyme APOBEC-3A (Homo sapiens, UniProt P31941); assay: Dose Response confirmation of small molecule APOBEC3A DNA Deaminase Inhibitors via a fluorescence-based single-stranded DNA deaminase assay. [Related pubchem assays (depositor defined):AID493011, AID493024]; type: functional
[3] = biological target: G-protein coupled receptor 55 (Homo sapiens, UniProt Q9Y2T6); assay: GPR55 antagonists blocking LPI-driven arrestin recruitment, primary screen, imaging, U2OS, beta-arrestin-GFP, LPI agonist (AID 2013); type: functional;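 further: antagonist potency measured as reduced agonist-driven arrestin aggregation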
[4] = biological target: T1, Short transient receptor potential channel 4 (Mus musculus, UniProt Q9QUQ5); assay: mouse TRPC4 channel inhibitors, dose response, cell-based, HEK293 TRPC4/mu-opioid, Fluo-4 calcium (AID 434942); type: functional;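 further: potency of inhibitors blocking the TRPC4 calcium response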
T1 sequence (Q9QUQ5 whole entry): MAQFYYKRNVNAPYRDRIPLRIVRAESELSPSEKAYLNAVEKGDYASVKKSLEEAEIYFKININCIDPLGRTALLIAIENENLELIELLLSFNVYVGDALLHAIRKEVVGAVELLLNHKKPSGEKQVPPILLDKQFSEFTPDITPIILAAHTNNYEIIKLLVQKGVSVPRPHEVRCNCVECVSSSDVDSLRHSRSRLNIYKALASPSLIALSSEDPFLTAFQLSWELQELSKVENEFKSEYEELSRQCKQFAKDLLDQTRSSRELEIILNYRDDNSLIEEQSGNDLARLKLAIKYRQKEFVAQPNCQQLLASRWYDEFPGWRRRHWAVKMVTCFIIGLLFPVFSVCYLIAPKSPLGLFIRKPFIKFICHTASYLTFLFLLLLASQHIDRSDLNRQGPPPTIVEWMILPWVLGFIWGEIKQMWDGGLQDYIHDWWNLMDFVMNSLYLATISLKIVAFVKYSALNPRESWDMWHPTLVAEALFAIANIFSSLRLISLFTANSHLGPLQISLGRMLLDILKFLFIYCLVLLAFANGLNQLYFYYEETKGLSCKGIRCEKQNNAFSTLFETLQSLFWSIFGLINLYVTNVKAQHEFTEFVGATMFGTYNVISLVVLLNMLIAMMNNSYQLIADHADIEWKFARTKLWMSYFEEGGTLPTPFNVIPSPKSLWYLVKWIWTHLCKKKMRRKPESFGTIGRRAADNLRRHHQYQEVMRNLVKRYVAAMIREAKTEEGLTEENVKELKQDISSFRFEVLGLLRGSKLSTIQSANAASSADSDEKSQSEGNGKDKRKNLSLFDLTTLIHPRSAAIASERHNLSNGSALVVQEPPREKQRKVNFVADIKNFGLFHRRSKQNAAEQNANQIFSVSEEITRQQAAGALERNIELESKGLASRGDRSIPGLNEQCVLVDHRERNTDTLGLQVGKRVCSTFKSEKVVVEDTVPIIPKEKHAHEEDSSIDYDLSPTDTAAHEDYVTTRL

[5] = C. albicans growth with fluconazole, confirmation, fluorescence, retest (AID 2467); type: functional, cell-based
Genome polyprotein = Genome polyprotein (dengue virus type 2, UniProt P29990); assay: Dengue-2 NS5 methyltransferase inhibitors, primary screen, biochemical, confirmation dose response (AID 588689); type: functional
[6] = biological target: T2, Mannose-6-phosphate isomerase (Homo sapiens, UniProt P34949); assay: human PMI inhibitors, high substrate, primary screen, biochemical, fluorescence intensity, high mannose 6-phosphate (AID 1220)
T2 sequence (P34949 whole entry): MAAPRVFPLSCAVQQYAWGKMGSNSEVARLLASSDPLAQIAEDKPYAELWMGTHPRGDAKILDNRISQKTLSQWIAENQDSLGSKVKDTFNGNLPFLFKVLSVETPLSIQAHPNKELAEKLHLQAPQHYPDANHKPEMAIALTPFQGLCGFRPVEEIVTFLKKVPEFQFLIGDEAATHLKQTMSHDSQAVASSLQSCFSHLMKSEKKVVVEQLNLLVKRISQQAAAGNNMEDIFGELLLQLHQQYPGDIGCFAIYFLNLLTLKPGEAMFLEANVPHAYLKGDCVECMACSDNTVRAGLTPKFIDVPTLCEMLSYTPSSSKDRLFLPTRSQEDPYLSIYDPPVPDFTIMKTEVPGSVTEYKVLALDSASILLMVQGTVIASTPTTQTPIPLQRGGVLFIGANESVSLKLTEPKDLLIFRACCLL

[7] = NIH-3T3 fibroblast cytotoxicity, dose response, cytotoxicity control, cell-based, fluorescence, Alamar Blue, secondary assay (AID 2327); type: functional;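 further: NIH-3T3 mouse fibroblasts cultured with fluconazole at 8 µg/mL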
Estrogen receptor beta = Estrogen receptor beta (Homo sapiens, UniProt Q92731); assay: ERβ–SRC-3 coactivator interaction inhibitors, confirmation, orthogonal assay, biochemical, ELISA, streptavidin-HRP readout (AID 1060)
Bcl-2-like protein 10 = biological target: T3, Bcl-2-like protein 10 (Homo sapiens, UniProt Q9HD36); assay: displacers of TR3 peptide from Bcl-B, primary screen, selectivity assay for Bfl-1 inhibitor project, biochemical, fluorescence polarization, FITC-TR3 peptide (AID 748);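 further: fluorescence polarization from a fluorescein-labelled TR3 peptide binding purified Bcl-B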
T3 sequence (Q9HD36 whole entry): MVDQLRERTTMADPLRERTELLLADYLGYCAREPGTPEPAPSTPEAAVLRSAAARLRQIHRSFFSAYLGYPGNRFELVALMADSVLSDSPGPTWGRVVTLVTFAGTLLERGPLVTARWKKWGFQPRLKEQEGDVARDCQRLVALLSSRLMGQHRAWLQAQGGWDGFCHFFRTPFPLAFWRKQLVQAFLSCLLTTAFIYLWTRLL

[8] = biological target: Alkaline phosphatase, placental type (Homo sapiens, UniProt P05187); assay: PLAP enzyme inhibitors, confirmation, biochemical, luminescence (AID 1512); type: functional
Troponin, cardiac muscle = Troponin, cardiac muscle (Homo sapiens, UniProt P19429+P45379+P63316); assay: Fluorescence-based biochemical high throughput dose response assay for activators of the calcium sensitivity of cardiac Regulated Thin Filaments (RTF). [Related pubchem assays (depositor defined):AID493008, AID493018, AID504382, AID504383]; type: protein-complex assay
[9] = growth suppression of PTEN-null colon cells, dose response, cell-based, HCT116 PTEN knockout (AID 1047); type: functional;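 further: HCT116 colon tumor cells with PTEN knocked out; cells exposed to compound for 60 hours before readout; potency for loss of cell viability measured by luminescence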
SUMO-activating enzyme = SUMO-activating enzyme (Homo sapiens, UniProt Q9UBT2); assay: SUMOylation inhibitor hit validation, confirmation, SUMOylation inhibitor project, biochemical, AlphaScreen (AID 2018); type: functional
Leucine aminopeptidase = biological target: T4, Leucine aminopeptidase (Plasmodium falciparum 3D7, UniProt Q8IL11); assay: P. falciparum M17LAP inhibitors, primary screen, biochemical, fluorogenic H-Leu-NHMec substrate, 1536-well (AID 1619); type: functional
T4 sequence (Q8IL11 whole entry): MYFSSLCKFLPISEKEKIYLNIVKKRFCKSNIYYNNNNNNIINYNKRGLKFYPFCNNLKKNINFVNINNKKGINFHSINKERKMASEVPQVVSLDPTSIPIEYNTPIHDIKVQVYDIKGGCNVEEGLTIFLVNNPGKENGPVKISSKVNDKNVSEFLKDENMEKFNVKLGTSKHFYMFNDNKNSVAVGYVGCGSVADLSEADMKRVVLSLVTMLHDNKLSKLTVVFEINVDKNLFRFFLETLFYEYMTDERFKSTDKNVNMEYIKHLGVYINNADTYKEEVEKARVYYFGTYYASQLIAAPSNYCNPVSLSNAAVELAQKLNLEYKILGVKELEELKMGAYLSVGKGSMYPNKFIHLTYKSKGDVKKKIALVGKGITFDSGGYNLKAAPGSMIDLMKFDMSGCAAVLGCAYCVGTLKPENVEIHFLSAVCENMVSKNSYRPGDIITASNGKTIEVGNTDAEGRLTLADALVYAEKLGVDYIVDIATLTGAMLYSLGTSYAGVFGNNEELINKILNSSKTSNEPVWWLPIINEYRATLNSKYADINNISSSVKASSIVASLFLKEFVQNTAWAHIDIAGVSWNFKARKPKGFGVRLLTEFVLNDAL

[10] = Luminescence Cell-Based Dose Retest to Confirm Inhibitors of Cancer Stem Cells. [Related pubchem assays (depositor defined):AID2717, AID2721]; type: functional; details: Homo sapiens
[11] = biological target: T5, Runt-related transcription factor 1/Core-binding factor subunit beta (Homo sapiens, UniProt Q01196+Q13951); assay: inhibitors of RUNX1 Runt–CBFb-SMMHC binding, primary screen, biochemical, FRET, Cerulean-Runt, Venus-CBFb-SMMHC, uHTS (AID 1434); type: protein assay;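 further: partner is the CBFb-SMMHC leukemia fusion protein rather than wild-type CBFb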
[12] = biological target: T5, Runt-related transcription factor 1/Core-binding factor subunit beta; assay: inhibitors of RUNX1 Runt–CBFb-SMMHC binding, biochemical, TR-FRET (AID 1438); type: protein assay
[13] = biological target: T6, Sphingosine 1-phosphate receptor 4 (Homo sapiens, UniProt O95977); assay: Late-stage fluorescence dose response cell-based assay to identify agonists of the Sphingosine 1-Phosphate Receptor 4 (S1P4): purchased compounds EC50. [Related pubchem assays (depositor defined):AID1509, AID1523, AID1563, AID1686, AID1701, AID1801]; type: functional
T6 sequence (O95977 whole entry): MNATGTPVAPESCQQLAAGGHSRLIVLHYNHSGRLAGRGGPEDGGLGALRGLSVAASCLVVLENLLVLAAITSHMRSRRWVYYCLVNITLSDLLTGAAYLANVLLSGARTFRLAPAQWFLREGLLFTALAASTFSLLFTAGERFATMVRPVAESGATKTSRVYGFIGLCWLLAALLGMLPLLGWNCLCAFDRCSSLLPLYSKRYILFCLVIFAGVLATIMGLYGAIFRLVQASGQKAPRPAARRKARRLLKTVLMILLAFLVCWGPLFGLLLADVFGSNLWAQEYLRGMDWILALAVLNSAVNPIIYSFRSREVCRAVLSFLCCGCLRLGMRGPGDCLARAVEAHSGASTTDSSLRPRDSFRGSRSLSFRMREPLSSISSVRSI

SUMO E1/E2 = SUMO E1/E2 (Homo sapiens, UniProt P63279+Q9UBE0+Q9UBT2); assay: SAR analysis of SUMOylation using HTRF in an in-Vitro dose response assay. [Related pubchem assays (depositor defined):AID2006, AID2011, AID2018, AID2069, AID2658]; type: functional
[14] = biological target: T7, Voltage-gated N-type calcium channel alpha-1B subunit/Amyloid beta A4 precursor protein-binding family A member 1 (Homo sapiens, UniProt Q00975+Q02410); assay: disruptors of Mint-PDZ/N-type channel peptide interaction – biochemical, HTRF, SAR follow-up (AID 2489); type: functional
[15] = biological target: T7, Voltage-gated N-type calcium channel alpha-1B subunit/Amyloid beta A4 precursor protein-binding family A member 1; assay: disruptors of Mint-PDZ/N-type channel peptide interaction – biochemical, HTRF, set 2, SAR follow-up (AID 434980); type: functional

## CCOC(=O)c1sc2nc(C3CC3)cc(-c3ccc(F)cc3)c2c1N
CAAX prenyl protease 1
  AC50: 3.7 µM (active)

## COC(=O)C1=C(C)N(Cc2ccccc2)C(NCCc2cccnc2)=N[C@H]1c1ccccc1
[1]
  IC50: 4.62 µM (active)
[2]
  IC50: 2.69 µM (active)
[3]
  IC50: 1.08 µM (active)

## COc1cc2ccccc2c2c1CCCC2=O
[4]
  EC50: 2.99 µM (active)

## O=C(Cc1cnn(-c2ccccc2)c1)c1ccc(O)c(O)c1O
[5]
  EC50: > 38 µM (not active)
Genome polyprotein
  IC50: 75.7 µM (active)
[6]
  IC50: 4.69 µM (active)
[7]
  EC50: > 150 µM (inactive)
Estrogen receptor beta
  IC50: 34.5 µM (not active)
Bcl-2-like protein 10
  IC50: 39.5 µM (active)
[8]
  IC50: > 100 µM (inactive)

## COc1ccc(/C=C2\SC(=S)N(CCCC(=O)Nc3ccccc3C(=O)O)C2=O)cc1OC
Troponin, cardiac muscle
  EC50: 12.9 µM (inactive)

## Cc1cc(NC(=O)Cn2c(=O)n(Cc3ccccc3)c(=O)c3ccccc32)no1
[9]
  EC50: 35.9 µM (active)
SUMO-activating enzyme
  IC50: 67.7 µM (active)

## O=C(Nc1cc(N2CCOCC2)ncn1)NC1(C(F)(F)F)Oc2ccc(Cl)cc2O1 (stereo not given)
[6]
  IC50: 18.1 µM (active)
Leucine aminopeptidase
  IC50: 32.4 µM (active)
[10]
  AC50: 7.43 µM (active)
[8]
  IC50: 10.4 µM (active)

## CCC1(C)Cc2c(sc3[nH]c(=O)[nH]c(=O)c23)CS1 (stereo not given)
Genome polyprotein
  IC50: 88.7 µM (active)
[11]
  IC50: 38.5 µM (active)
[12]
  IC50: 45.1 µM (active)

## CC1=CC(=C(C#N)c2nc3ccccc3s2)C=C(C)N1c1ccc(F)cc1
Troponin, cardiac muscle
  EC50: > 7.94 µM (active)

## Cc1ccc(-n2c(C)cc(/C=N/NC(=O)Cn3c4ccccc4c(=O)c4ccccc43)c2C)cc1
[11]
  IC50: 2.37 µM (active)
[12]
  IC50: 13 µM (active)

## CCNC(=O)NC(=O)C(C)OC(=O)c1cc2c(C)nn(Cc3ccccc3)c2s1 (stereo not given)
[13]
  EC50: > 50 µM (inactive)

## Cc1ccc(CNC(=O)C(C)OC(=O)c2c(C)nn(Cc3ccc(C)cc3)c2Cl)cc1 (stereo not given)
[13]
  EC50: > 50 µM (inactive)

## COc1ccccc1C(=O)NC(=O)COC(=O)c1cc(-c2ccco2)nc2ccccc12
SUMO E1/E2
  IC50: 2.06 µM (active)
[14]
  IC50: 15.4 µM (active)
[15]
  IC50: 3.41 µM (active)
